Reference: BindingDB's records for doi:10.1016/s0960-894x(01)00648-5 (Merck Research Laboratories, 2001)

Columns and labels:
Genome polyprotein [1] = target: T1, Genome polyprotein (Human rhinovirus sp., UniProt Q4U254); assay: ChEBML_160894
T1 sequence (Q4U254 whole entry): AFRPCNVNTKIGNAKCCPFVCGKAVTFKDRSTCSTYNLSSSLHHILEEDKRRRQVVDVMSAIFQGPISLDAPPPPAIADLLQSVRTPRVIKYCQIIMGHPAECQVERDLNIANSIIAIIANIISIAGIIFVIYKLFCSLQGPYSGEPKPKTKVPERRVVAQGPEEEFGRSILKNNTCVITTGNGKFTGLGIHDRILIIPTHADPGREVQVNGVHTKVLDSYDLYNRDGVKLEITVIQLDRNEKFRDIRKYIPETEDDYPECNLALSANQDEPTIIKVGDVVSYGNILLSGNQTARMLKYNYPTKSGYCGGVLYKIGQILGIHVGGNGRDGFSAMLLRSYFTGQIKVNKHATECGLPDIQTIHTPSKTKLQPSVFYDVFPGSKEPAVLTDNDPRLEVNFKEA
Source text: (§1) Inhibitory activity against HRV 3Cpro using HPLC assay

Genome polyprotein [2] = target: T2, Genome polyprotein (Human rhinovirus sp., UniProt Q04107); assay: ChEBML_160894
T2 sequence (Q04107 whole entry): T1 sequence (Q4U254 whole entry)
Source text: as §1

Molecule `Cc1cc(O)c2c(c1)C(=O)C=CC2=O` [5-Hydroxy-7-methyl-[1,4]naphthoquinone] has an IC50 (Genome polyprotein [1]) of 6.4 µM.

`O=C1C=Cc2ccccc2C1=O` [1,2-dihydronaphthalene-1,2-dione] showed an IC50 (Genome polyprotein [2]) of 8.2 µM.

`C[C@@H]1CC2=C(C(=O)c3c(O)cc(O)cc3C2=O)[C@@H](O)O1` [(1S,3R)-1,7,9-Trihydroxy-3-methyl-3,4-dihydro-1H-benzo[g]isochromene-5,10-dione] gave an IC50 (Genome polyprotein [1]) of 47 µM.

Work on `CC(=O)c1c(C)cc2c(c1O)C(=O)C(=O)CC2=O` [7-Acetyl-2,8-dihydroxy-6-methyl-[1,4]naphthoquinone] yielded an IC50 (Genome polyprotein [1]) of over 150 µM.

`COC1=CC(=O)c2ccccc2C1=O` showed an IC50 (Genome polyprotein [1]) of 26 µM.

In the case of `O=C1C=CC(=O)c2c1ccc1c2ccc2ccccc21` [Chrysene-1,4-dione], the IC50 (Genome polyprotein [1]) is reported as 46.5 µM.

With `COC1=CC(=O)c2ccc(C)cc2C1=O` [2-Methoxy-7-methyl-[1,4]naphthoquinone] the IC50 (Genome polyprotein [1]) was 10.5 µM.

In the case of `COc1cc(O)c2c(c1)C(=O)c1cc(C)cc(O)c1C2=O` [physcion], the IC50 (Genome polyprotein [1]) is reported as over 150 µM.

`O=C1C=CC(=O)c2ccccc21` [1,4-dihydronaphthalene-1,4-dione] was tested, and the IC50 (Genome polyprotein [1]) was 21 µM.

Molecule `COC1=CC(=O)c2c(cc(C)c(C(C)=O)c2OC(C)=O)C1=O` [Acetic acid 2-acetyl-6-methoxy-3-methyl-5,8-dioxo-5,8-dihydro-naphthalen-1-yl ester] has an IC50 (Genome polyprotein [1]) of 8.1 µM.

For `Cc1cc(O)c2c(c1)C(=O)c1cc(O)cc(O)c1C2=O` [1,3,8-trihydroxy-6-methylanthra-9,10-quinone], the IC50 (Genome polyprotein [2]) was over 150 µM.

`CC1Cc2cc(O)c3c(c2C(=O)O1)C(=O)C=C(C1=CC(=O)c2c(c(O)cc4c2C(=O)OC(C)C4)C1=O)C3=O` (stereo not drawn) [9,9'-Dihydroxy-2,2'-dimethyl-1,2,1',2'-tetrahydro-[7,7']bi[3-oxa-phenanthrenyl]-4,5,8,4',5',8'-hexaone] gave an IC50 (Genome polyprotein [2]) of 6 µM.

`O=C1CC(=O)c2ccccc2C1=O` gave an IC50 (Genome polyprotein [1]) of over 150 µM.

`COC1=CC(=O)c2c(cc(C)c(C(C)=O)c2O)C1=O` [6-Acetyl-5-hydroxy-2-methoxy-7-methyl-[1,4]naphthoquinone] gave an IC50 (Genome polyprotein [1]) of 4.6 µM.

In the case of `O=C1C(=O)c2ccccc2-c2ccccc21`, the IC50 (Genome polyprotein [1]) is reported as 1.4 µM.

`COC1=CC(=O)c2c(O)cc(C)cc2C1=O` [2-methoxy-7-methyljuglone] gave an IC50 (Genome polyprotein [1]) of 2.4 µM.

For `COC1=CC(=O)c2c(OC(C)=O)cc(C)cc2C1=O` [Acetic acid 6-methoxy-3-methyl-5,8-dioxo-5,8-dihydro-naphthalen-1-yl ester], the IC50 (Genome polyprotein [1]) was 40 µM.

With `COC1=CC(=O)c2cc(C)c(C(C)=O)c(OC)c2C1=O` [7-Acetyl-2,8-dimethoxy-6-methyl-[1,4]naphthoquinone] the IC50 (Genome polyprotein [1]) was 124 µM.
